Starred links: 1 amine or outer side, 2 acyl side, 3 side chain; linkers in the order of their positions; H or OH if unused. Positions of bridges follow the written chain, without caps; N, C: chain ends. Non-standard residues stand in square brackets, D forms with d. Residues, ends and D or L forms follow the SMILES beside them. Groups on a side chain read outwards from the residue. Chains are numbered I, II in the order given. *: point of attachment. X7 = O=C(O)CN1CCN(CC(=O)O)CCN([C@H](CCC(=O)*)C(=O)O)CCN(CC(=O)O)CC1; Benzoyl(4-SiFtBu2) = CC(C)(C)[Si](F)(c1ccc(C(=O)*)cc1)C(C)(C)C; DOTA = O=C(O)CN1CCN(CC(=O)O)CCN(CC(=O)*)CCN(CC(=O)O)CC1; d(γGlu) = O=C(O)[C@@H](CCC(=O)[*:2])N[*:1]; 2Nal = N[C@@H](Cc1ccc2ccccc2c1)C(=O)O; dCit = NC(=O)NCCC[C@@H](N)C(=O)O; dNMeOrn = CN[C@H](CCCN)C(=O)O; 4Abz = Nc1ccc(C(=O)O)cc1; dDap = NC[C@@H](N)C(=O)O; CO = O=C([*:1])[*:2]
Experiments:
[1] = system: CXCR4-expressing Chem_1 cells; test: Determination of internalization, dual tracer with 125I-Fc-131; assay type: cell-based; conditions: for Cell-bound [%] / Internalized [%]: of total cellular activity
Experimental: CXCR4-expressing Chem_1 cells were grown in DMEM-F12 medium supplemented with 10 vol % FBS, 1 vol % NEA, 1 vol % PenStrep and 1 vol % HEPES (1.00 M). Cells were maintained in a 5% CO2 atmosphere at 37° C.
For in vitro experiments, cells were harvested by removal of the medium and incubation of the cells with trypsine/EDTA (0.05%/0.02%; w/v) for 30 in at 37° C.
Each well (n=3 for every time point) was either treated with 25 μL DMEM-F12 (+5 wt % BSA) or 25 μL of an AMD3100 stock (1 mM in H2O) for blockage of the receptors.
The experiment was stopped by placing the well-plate on ice and removing the supernatant. The cells were washed with 250 μL cold HBSS and the both fractions for each well combined, comprising the amount of unbound radioligand.
The supernatant was removed, the cells washed with cold HBSS and the respective fractions combined to obtain the amount of surface-bound radioligand.
The cells were then incubated with 300 μL NaOH (1.00 M in H2O) for at least 30 at r.t. before the supernatant was removed. The well was washed with another 300 μL NaOH and the fractions combined that contain the amount of internalized radioligand.
The three different fractions were subjected to activity measurement in the γ-counter, measuring the activity of the radionuclide used for the labeling of the peptide under investigation first. […] Data was corrected for non-specific internalization and referred to the specific internalization of the standard ligand

[2] = Octanol/PBS partition coefficient (logD7.4); assay type: physicochemical; conditions: n-octanol/PBS pH 7.4, radiolabeled compound
Experimental: The tubes were vortexed at maximum speed for 3 min to ensure equilibrium before centrifugation at 15.000×g for 5 min on a Biofuge 15 from Heraeus Holding GmbH (Osterode, Germany). An aliquot of 100 μL of each fraction was measured in the γ-counter and the log D7.4 calculated as follows: […]

SMILES	Internalized in relation to 125I-Fc-131 [%] ([1]; 30 min)	Cell-bound [%] ([1]; 30 min)	Internalized [%] ([1]; 30 min)	logD7.4 [2]	Internalization [% Fc-131] ([1]; 90 min)	Internalized in relation to 125I-Fc-131 [%] ([1]; 90 min)	Cell-bound [%] ([1]; 90 min)	Internalized [%] ([1]; 90 min)	other results
C[C@@H](NC(=O)[C@@H](CCCNC(N)=O)NC(=O)[C@@H](CN)NC(=O)CN1CCN(CC(=O)O)CCN(CC(=O)O)CCN(CC(=O)O)CC1)C(=O)Nc1ccc(C(=O)NCCC[C@@H]2C(=O)N[C@@H](CCCNC(=N)N)C(=O)N[C@@H](Cc3ccc4ccccc4c3)C(=O)NCC(=O)N[C@H](Cc3ccc(O)cc3)C(=O)N2C)cc1 [CXCR4-DOTA-5 [Lu]] (cyclo([dY][dNMeOrn]([4Abz-dA-dCit-dDap-DOTA])R[2Nal]G))	151 ± 4.51%	4.66 ± 0.45%	5.80 ± 0.14%	−3.58 ± 0.08 (8)	–	–	–	–	Internalized in relation to 125I-Fc-131 [%] ([1]; 15 min): 97.3 ± 8.78%; Cell-bound [%] ([1]; 15 min): 3.47 ± 0.46%; Internalized [%] ([1]; 15 min): 3.52 ± 0.31%; Internalized in relation to 125I-Fc-131 [%] ([1]; 60 min): 151 ± 15.9%; Cell-bound [%] ([1]; 60 min): 5.21 ± 0.48%; Internalized [%] ([1]; 60 min): 6.94 ± 0.59%; Internalized in relation to 125I-Fc-131 [%] ([1]; 120 min): 190 ± 13.0%; Internalization [% Fc-131] 2 h ([1]; 2 h, 177Lu-labeled): 190 % Fc-131; Cell-bound [%] ([1]; 120 min): 3.94 ± 0.45%; Internalized [%] ([1]; 120 min): 9.65 ± 0.16%
C[C@@H](NC(=O)[C@@H](CCCNC(=N)N)NC(=O)[C@@H](CNC(=O)c1ccc([Si](F)(C(C)(C)C)C(C)(C)C)cc1)NC(=O)CC[C@H](C(=O)O)N1CCN(CC(=O)O)CCN(CC(=O)O)CCN(CC(=O)O)CC1)C(=O)Nc1ccc(C(=O)NCCC[C@@H]2C(=O)N[C@@H](CCCNC(=N)N)C(=O)N[C@@H](Cc3ccc4ccccc4c3)C(=O)NCC(=O)N[C@H](Cc3ccc(O)cc3)C(=O)N2C)cc1 [CXCR4-SiFA-1 [Lu]]	–	–	–	1.41 ± 0.04 (8)	–	–	–	–	–
C[C@@H](NC(=O)[C@@H](CCCNC(=N)N)NC(=O)[C@@H](Cc1c[nH]cn1)NC(=O)[C@@H](CNC(=O)c1ccc([Si](F)(C(C)(C)C)C(C)(C)C)cc1)NC(=O)CC[C@H](C(=O)O)N1CCN(CC(=O)O)CCN(CC(=O)O)CCN(CC(=O)O)CC1)C(=O)Nc1ccc(C(=O)NCCC[C@@H]2C(=O)N[C@@H](CCCNC(=N)N)C(=O)N[C@@H](Cc3ccc4ccccc4c3)C(=O)NCC(=O)N[C@H](Cc3ccc(O)cc3)C(=O)N2C)cc1 [CXCR4-SiFA-2 [Ga]]	500 ± 23.1%	0.08 ± 0.23%	12.5 ± 0.46%	0.39 ± 0.07 (8)	562 % Fc-131	562 ± 33.0%	0.43 ± 0.26%	16.5 ± 0.94%	–
C[C@@H](NC(=O)[C@@H](CCCNC(=N)N)NC(=O)[C@@H](Cc1c[nH]cn1)NC(=O)[C@@H](CNC(=O)c1ccc([Si](F)(C(C)(C)C)C(C)(C)C)cc1)NC(=O)CC[C@H](C(=O)O)N1CCN(CC(=O)O)CCN(CC(=O)O)CCN(CC(=O)O)CC1)C(=O)Nc1ccc(C(=O)NCCC[C@@H]2C(=O)N[C@@H](CCCNC(=N)N)C(=O)N[C@@H](Cc3ccc4ccccc4c3)C(=O)NCC(=O)N[C@H](Cc3ccc(O)cc3)C(=O)N2C)cc1 [CXCR4-SiFA-2 [Lu]]	–	–	–	0.80 ± 0.04 (8)	–	–	–	–	–
C[C@@H](NC(=O)[C@@H](CCCNC(=N)N)NC(=O)[C@@H](CN)NC(=O)[C@@H](CNC(=O)c1ccc([Si](F)(C(C)(C)C)C(C)(C)C)cc1)NC(=O)[C@@H](CCCCNC(=O)CC[C@H](C(=O)O)N1CCN(CC(=O)O)CCN(CC(=O)O)CCN(CC(=O)O)CC1)NC(=O)CC[C@H](C(=O)O)N1CCN(CC(=O)O)CCN(CC(=O)O)CCN(CC(=O)O)CC1)C(=O)Nc1ccc(C(=O)NCCC[C@@H]2C(=O)N[C@@H](CCCNC(=N)N)C(=O)N[C@@H](Cc3ccc4ccccc4c3)C(=O)NCC(=O)N[C@H](Cc3ccc(O)cc3)C(=O)N2C)cc1 [CXCR4-SiFA-3 [Ga]] (I: X7-[dK](X7)[dDap](Benzoyl(4-SiFtBu2))[dDap][dR][dA][4Abz] / II: cyclo([dY][dNMeOrn]R[2Nal]G); amide I:C-II:2)	–	–	–	−1.65 ± 0.09 (8)	–	–	–	–	–
C[C@@H](NC(=O)[C@@H](CCCNC(=N)N)NC(=O)[C@@H](CN)NC(=O)[C@@H](CNC(=O)CC[C@H](C(=O)O)N1CCN(CC(=O)O)CCN(CC(=O)O)CCN(CC(=O)O)CC1)NC(=O)[C@@H](CNC(=O)c1ccc([Si](F)(C(C)(C)C)C(C)(C)C)cc1)NC(=O)CC[C@@H](NC(=O)N[C@H](CCC(=O)O)C(=O)O)C(=O)O)C(=O)Nc1ccc(C(=O)NCCC[C@@H]2C(=O)N[C@@H](CCCNC(=N)N)C(=O)N[C@@H](Cc3ccc4ccccc4c3)C(=O)NCC(=O)N[C@H](Cc3ccc(O)cc3)C(=O)N2C)cc1 [CXCR4-SiFA-4 [Ga]] (I: {dE-CO-d(γGlu)}-[dDap](Benzoyl(4-SiFtBu2))[dDap](X7)[dDap][dR][dA][4Abz] / II: cyclo([dY][dNMeOrn]R[2Nal]G); amide I:C-II:2)	56.6 ± 8.36%	0.10 ± 0.15%	1.36 ± 0.18%	−1.92 ± 0.06 (8)	58 % Fc-131	57.7 ± 5.43%	0.37 ± 0.20%	1.80 ± 0.15%	–

— patent US20250288704A1, “CXCR4-LIGANDS FOR DIAGNOSTIC AND THERAPEUTIC USE AND PRECURSORS THEREOF” (priority 2021, published 2025)
